From patent US20040152994A1, “Liver function test” (priority 2001, published 2004)

Tested on: hepatic glycine conjugation
Details: in vivo
Experimental: The test is carried out in the morning on an empty stomach after an overnight fast.
To equilibrate the body's glycine pool, an oral bolus of 3 g of glycine dissolved in 200 ml of water is given 1 hour prior to tracer administration.
At t=0 min, a weight adjusted dose of [^13C−1]-glycine (eg. 150 mg for 44.5 to 95.2 kg body weight) was given orally. Breath samples are taken subsequently every 10 minutes over a period of 300 minutes.
At t=160 min, a second dose of [^13C−1]-glycine was given, followed by three equal dozes of sodium benzoate (eg. 284.2 mg) at 170, 180 and 190 minutes.
Breath samples are measured for ^13CO2 content above base line, ie. the mean of 3 pre-test samples. Time to peak of ^13CO2 exhalation, ^13CO2 exhalation in percentage of given dose [% dose/hour] and cumulative ^13CO2 exhalation over time are determined. Mathematical modelling of the various curves is used to de-convolute the dose recovery curves of parts A and B.
The breath test consisted of two parts, A and B, that were at first carried out on 2 consecutive days and later combined into an one-day protocol.
Part A; After an overnight fast, subjects were given orally a weight adjusted dose of the tracer ^13C-glycine dissolved in water
Part B: After an, overnight fast, subjects were given orally the same amount of tracer plus an optimised amount of sodium benzoate.
For the one-day protocol, part B commenced 130 min after the start of part A.
Breath samples were collected in 10 min intervals.
10 volunteers (5 women, 5 men) with no medical history of liver problems were used as control group.
9 in-patients (6 women, 3 men) with varying stages of liver failure and different disease etiology were tested. Ethical approval for this ^13CO2-breath test, study was sought and obtained from the Tayside Healthboard Ethics Committee.

Time to peak PDR in patients compared to the control group: significantly delayed | highest GCa-value (apparent glycine conjugation) in patients: 23.26% | mean PDRm ratio: 0.59
SMILES: NC[13C](=O)O [^13C-glycine, [^13C−1]-glycine]
